Data from ChEMBL document CHEMBL5113529, “Design, Synthesis, and Biological Evaluation of Dual-Target COX-2/CYP51 Inhibitors for the Treatment of Fungal Infectious Diseases” (J Med Chem, 2022).
pIC50: −log10 of the molar value. Converted amounts (≈) assume the structure as drawn. The source made the active and inactive calls. The calls are words filed in the database; no cut-off is given here.

Legend:
Aspergillus fumigatus = experiment: Antifungal activity against Aspergillus fumigatus KM8001 assessed as fungal growth inhibition measured after 72 hrs by double dilution method; assay type: functional
Candida albicans [1] = experiment: Antifungal activity against Candida albicans ATCC SC5314 assessed as fungal growth inhibition measured after 72 hrs by double dilution method; assay type: functional
Pichia kudriavzevii = experiment: Antifungal activity against Candida krusei ATCC 6258 assessed as fungal growth inhibition measured after 72 hrs by double dilution method; assay type: functional
Candida tropicalis = experiment: Antifungal activity against Candida tropicalis ATCC 1369 assessed as fungal growth inhibition measured after 72 hrs by double dilution method; assay type: functional
Cryptococcus neoformans = experiment: Antifungal activity against Cryptococcus neoformans ZKCC 2209 assessed as fungal growth inhibition measured after 72 hrs by double dilution method; assay type: functional
Candida albicans [2] = experiment: Antifungal activity against Candida albicans ATCC SC5314 assessed as decrease in fungal cell density measured at 48 hrs by fluorescence microscopy (reference value: 258%); assay type: functional; set-up: scale not given: the % may be the effect or the level left
Candida albicans [3] = experiment: Antifungal activity against fluconazole- resistant Candida albicans 17# assessed as fungal growth inhibition measured after 72 hrs by double dilution method; assay type: functional
Candida albicans [4] = experiment: Antifungal activity against Candida albicans ATCC SC5314 assessed as decrease in fungal cell density measured immediately by fluorescence microscopy (reference value: 126%); assay type: functional; set-up: scale not given: the % may be the effect or the level left
Candida albicans [5] = experiment: Antifungal activity against fluconazole -resistant Candida albicans 904 assessed as fungal growth inhibition measured after 72 hrs by double dilution method; assay type: functional
[6] = target: T1, Prostaglandin G/H synthase 2 (Homo sapiens, UniProt P35354); experiment: Inhibition of COX-2 (unknown origin) using arachidonic acid as substrate preincubated for 10 mins followed by substrate addition and measured after 2 mins by immunoassay
T1 sequence (P35354 whole entry): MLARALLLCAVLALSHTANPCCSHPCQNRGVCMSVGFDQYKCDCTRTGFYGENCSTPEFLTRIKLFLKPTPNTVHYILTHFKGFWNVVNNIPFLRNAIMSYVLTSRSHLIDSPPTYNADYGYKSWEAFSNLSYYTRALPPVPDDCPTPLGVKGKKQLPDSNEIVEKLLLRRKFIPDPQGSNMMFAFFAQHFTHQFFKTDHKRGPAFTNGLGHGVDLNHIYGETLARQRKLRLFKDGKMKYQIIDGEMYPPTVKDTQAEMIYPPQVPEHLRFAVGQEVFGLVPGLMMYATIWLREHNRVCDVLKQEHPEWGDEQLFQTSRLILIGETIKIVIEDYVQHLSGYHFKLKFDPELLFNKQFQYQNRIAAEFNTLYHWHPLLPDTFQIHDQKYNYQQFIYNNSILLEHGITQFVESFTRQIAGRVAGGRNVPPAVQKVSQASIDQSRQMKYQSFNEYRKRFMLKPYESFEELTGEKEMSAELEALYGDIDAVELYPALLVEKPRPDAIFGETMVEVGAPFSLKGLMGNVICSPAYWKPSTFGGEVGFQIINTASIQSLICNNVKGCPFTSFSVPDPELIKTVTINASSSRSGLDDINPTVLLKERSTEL

Candida albicans [7] = experiment: Antifungal activity against fluconazole -resistant Candida albicans CaR assessed as fungal growth inhibition measured after 72 hrs by double dilution method; assay type: functional
[8] = target: Prostaglandin G/H synthase 1 (Homo sapiens, UniProt P23219); experiment: Inhibition of COX-1 (unknown origin) using arachidonic acid as substrate preincubated for 10 mins followed by substrate addition and measured after 2 mins by immunoassay
Candida albicans [9] = experiment: Antifungal activity against fluconazole -resistant Candida albicans 632 assessed as fungal growth inhibition measured after 72 hrs by double dilution method; assay type: functional
[10] = target: Lanosterol 14-alpha demethylase (Candida albicans (strain SC5314 / ATCC MYA-2876) (Yeast), UniProt P10613); experiment: Inhibition of CYP51 in Candida albicans SC5314 using Eburicol as substrate preincubated for 20 mins followed by substrate addition and measured after 4 mins by HPLC analysis; assay type: single protein
Candida albicans [11] = experiment: Antifungal activity against Candida albicans ATCC SC5314 assessed as induction of ROS production by measuring fluorescence intensity incubated for 12 hrs by KGT010-1 staining based fluorescence microscopy; assay type: functional, organism-based
Candida albicans [12] = experiment: Antifungal activity against fluconazole -resistant Candida albicans 901 assessed as fungal growth inhibition measured after 72 hrs by double dilution method; assay type: functional
Candida albicans [13] = experiment: Induction of mitochondrial membrane potential loss in Candida albicans ATCC SC5314 assessed as depolarized cells at 1 umol/ml incubated for 24 hrs by JC-1 staining based flow cytometry assay (reference value: 0.76 to 3.29%); assay type: functional; conditions: dose 1 µmol/L, at 1 µM
Candida albicans [14] = experiment: Induction of mitochondrial membrane potential loss in Candida albicans ATCC SC5314 assessed as polarized cells at 1 umol/ml incubated for 24 hrs by JC-1 staining based flow cytometry assay (reference value: 0.69%); assay type: functional; conditions: dose 1 µmol/L, at 1 µM
Candida albicans [15] = experiment: Induction of apoptosis in Candida albicans ATCC SC5314 assessed as mid apoptotic cells incuabted for 24 hrs by V-FITC/PI staining based flow cytometry analysis (reference value: 1.09%); assay type: functional
Candida albicans [16] = experiment: Induction of apoptosis in Candida albicans ATCC SC5314 assessed as late apoptotic cells incuabted for 24 hrs by V-FITC/PI staining based flow cytometry analysis (reference value: 0.36%); assay type: functional
Candida albicans [17] = experiment: Induction of apoptosis in Candida albicans ATCC SC5314 assessed as necrotic cells incuabted for 24 hrs by V-FITC/PI staining based flow cytometry analysis (reference value: 1.77%); assay type: functional
Candida albicans [18] = experiment: Induction of apoptosis in Candida albicans ATCC SC5314 assessed as normal cells incuabted for 24 hrs by V-FITC/PI staining based flow cytometry analysis (reference value: 96.78%); assay type: functional
Candida albicans [19] = experiment: Induction of mitochondrial membrane potential loss in Candida albicans ATCC SC5314 assessed as normal cells at 1 umol/ml incubated for 24 hrs by JC-1 staining based flow cytometry assay (reference value: 95.26%); assay type: functional; conditions: dose 1 µmol/L, at 1 µM

Chain of Lanosterol 14-alpha demethylase (P10613 whole entry): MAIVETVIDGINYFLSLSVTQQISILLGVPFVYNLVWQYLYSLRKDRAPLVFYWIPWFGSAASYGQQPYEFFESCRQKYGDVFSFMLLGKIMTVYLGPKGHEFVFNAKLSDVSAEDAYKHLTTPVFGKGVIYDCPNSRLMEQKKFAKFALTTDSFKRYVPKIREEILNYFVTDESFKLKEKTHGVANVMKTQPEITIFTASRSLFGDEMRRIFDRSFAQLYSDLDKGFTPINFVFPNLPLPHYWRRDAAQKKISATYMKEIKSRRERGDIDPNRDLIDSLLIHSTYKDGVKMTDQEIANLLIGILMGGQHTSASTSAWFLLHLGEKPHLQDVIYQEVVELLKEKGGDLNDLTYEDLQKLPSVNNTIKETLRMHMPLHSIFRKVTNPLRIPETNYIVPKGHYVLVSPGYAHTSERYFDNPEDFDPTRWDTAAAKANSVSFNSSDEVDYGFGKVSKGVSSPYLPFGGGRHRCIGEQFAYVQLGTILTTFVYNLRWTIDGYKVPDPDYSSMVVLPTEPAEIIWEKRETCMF
Chain of Prostaglandin G/H synthase 1 (P23219 whole entry): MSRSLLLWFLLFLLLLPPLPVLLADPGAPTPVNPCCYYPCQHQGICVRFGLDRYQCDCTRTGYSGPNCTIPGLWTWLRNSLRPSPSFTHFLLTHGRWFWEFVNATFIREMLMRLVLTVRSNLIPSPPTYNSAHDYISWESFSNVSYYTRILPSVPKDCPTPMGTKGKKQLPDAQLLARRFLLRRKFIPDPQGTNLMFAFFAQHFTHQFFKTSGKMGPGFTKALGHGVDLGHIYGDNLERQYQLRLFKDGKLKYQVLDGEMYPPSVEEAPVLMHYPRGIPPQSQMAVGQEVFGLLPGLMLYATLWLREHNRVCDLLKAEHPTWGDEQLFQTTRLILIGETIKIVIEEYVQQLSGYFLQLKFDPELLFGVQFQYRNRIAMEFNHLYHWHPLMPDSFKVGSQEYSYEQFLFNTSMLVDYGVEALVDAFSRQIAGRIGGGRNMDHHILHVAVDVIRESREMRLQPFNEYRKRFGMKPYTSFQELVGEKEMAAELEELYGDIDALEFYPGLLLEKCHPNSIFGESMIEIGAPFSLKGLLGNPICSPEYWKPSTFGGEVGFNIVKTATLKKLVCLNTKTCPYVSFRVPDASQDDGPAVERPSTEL

SMILES | MIC50 (Aspergillus fumigatus) | MIC50 (Candida albicans [1]) | MIC50 (Pichia kudriavzevii) | MIC50 (Candida tropicalis) | MIC50 (Cryptococcus neoformans) | other results
C[C@H](C(=O)NC(Cn1cncn1)C(=O)c1ccccc1)c1cccc(C(=O)c2ccccc2)c1 (some centres undefined) | 4 µg/mL (≈ 8.84 µM) | 5 µg/mL (≈ 11 µM) | 1 µg/mL (≈ 2.21 µM) | 0.5 µg/mL (≈ 1.1 µM) | 0.5 µg/mL (≈ 1.1 µM) | 
C[C@H](C(=O)NC(Cn1ccnc1)C(=O)c1ccccc1)c1cccc(C(=O)c2ccccc2)c1 (some centres undefined) | 4 µg/mL (≈ 8.86 µM) | 1 µg/mL (≈ 2.21 µM) | 0.5 µg/mL (≈ 1.11 µM) | 0.5 µg/mL (≈ 1.11 µM) | 1 µg/mL (≈ 2.21 µM) | 
CC(C)OC(=O)[C@@H](Cn1cncn1)NC(=O)[C@@H](C)c1cccc(C(=O)c2ccccc2)c1 | 4 µg/mL (≈ 9.21 µM) | 0.25 µg/mL (≈ 0.575 µM) | 0.5 µg/mL (≈ 1.15 µM) | 0.5 µg/mL (≈ 1.15 µM) | 0.25 µg/mL (≈ 0.575 µM) | Activity (Candida albicans [2]): 84%; MIC50 (Candida albicans [3]): 4 µg/mL (≈ 9.21 µM); Activity (Candida albicans [4]): 141%; MIC50 (Candida albicans [5]): > 8 µg/mL; pIC50 [6]: 5.47; MIC50 (Candida albicans [7]): 4 µg/mL (≈ 9.21 µM); pIC50 [8]: < 4.30; MIC50 (Candida albicans [9]): > 8 µg/mL; pIC50 [10]: 6.70; Activity (Candida albicans [11]): Active; MIC50 (Candida albicans [12]): 4 µg/mL (≈ 9.21 µM)
C[C@H](C(=O)N[C@H](Cn1ccnc1)C(=O)NC1CCCCC1)c1ccc(-c2ccccc2)c(F)c1 | > 8 µg/mL | 2 µg/mL (≈ 4.32 µM) | 2 µg/mL (≈ 4.32 µM) | 1 µg/mL (≈ 2.16 µM) | 4 µg/mL (≈ 8.65 µM) | 
CC(C)OC(=O)[C@@H](Cn1ccnc1)NC(=O)[C@@H](C)c1cccc(C(=O)c2ccccc2)c1 | > 8 µg/mL | 1 µg/mL (≈ 2.31 µM) | 0.5 µg/mL (≈ 1.15 µM) | 2 µg/mL (≈ 4.61 µM) | 1 µg/mL (≈ 2.31 µM) | 
COC(=O)[C@@H](Cn1cncn1)NC(=O)[C@@H](C)c1cccc(C(=O)c2ccccc2)c1 | 2 µg/mL (≈ 4.92 µM) | 0.5 µg/mL (≈ 1.23 µM) | 0.5 µg/mL (≈ 1.23 µM) | 1 µg/mL (≈ 2.46 µM) | 1 µg/mL (≈ 2.46 µM) | Activity (Candida albicans [13]): 0.9%; Activity (Candida albicans [14]): 0.54%; Activity (Candida albicans [15]): 0.26%; Activity (Candida albicans [16]): 0.9%; Activity (Candida albicans [17]): 34.69%; Activity (Candida albicans [18]): 64.15%; Activity (Candida albicans [19]): 54.56%
COC(=O)[C@@H](Cn1cncn1)NC(=O)[C@@H](C)c1ccc(-c2ccccc2)c(F)c1 | 4 µg/mL (≈ 10.1 µM) | 0.5 µg/mL (≈ 1.26 µM) | 1 µg/mL (≈ 2.52 µM) | 2 µg/mL (≈ 5.05 µM) | 2 µg/mL (≈ 5.05 µM) | 
C[C@H](C(=O)NC(Cn1ccnc1)C(=O)c1ccccc1)c1ccc(-c2ccccc2)c(F)c1 (some centres undefined) | > 8 µg/mL | 0.5 µg/mL (≈ 1.13 µM) | 0.25 µg/mL (≈ 0.566 µM) | 0.5 µg/mL (≈ 1.13 µM) | 0.5 µg/mL (≈ 1.13 µM) | 
COc1ccc2cc([C@H](C)C(=O)N[C@H](Cn3ccnc3)C(=O)NC3CCCCC3)ccc2c1 | 4 µg/mL (≈ 8.92 µM) | 1 µg/mL (≈ 2.23 µM) | 0.5 µg/mL (≈ 1.11 µM) | 0.5 µg/mL (≈ 1.11 µM) | 1 µg/mL (≈ 2.23 µM) | Activity (Candida albicans [11]): Active
COc1ccc2cc([C@H](C)C(=O)N[C@H](Cn3ccnc3)C(=O)OC(C)C)ccc2c1 | 4 µg/mL (≈ 9.77 µM) | 0.5 µg/mL (≈ 1.22 µM) | 0.25 µg/mL (≈ 0.611 µM) | 1 µg/mL (≈ 2.44 µM) | 0.5 µg/mL (≈ 1.22 µM) | 
COc1ccc2cc([C@H](C)C(=O)N[C@H](Cn3ccnc3)C(=O)NC(C)C)ccc2c1 | 4 µg/mL (≈ 9.79 µM) | 0.25 µg/mL (≈ 0.612 µM) | 0.25 µg/mL (≈ 0.612 µM) | 1 µg/mL (≈ 2.45 µM) | 0.5 µg/mL (≈ 1.22 µM) | 
COC(=O)[C@@H](Cn1cncn1)NC(=O)[C@@H](C)c1ccc2cc(OC)ccc2c1 | 4 µg/mL (≈ 10.5 µM) | 0.25 µg/mL (≈ 0.654 µM) | 1 µg/mL (≈ 2.61 µM) | 0.25 µg/mL (≈ 0.654 µM) | 0.25 µg/mL (≈ 0.654 µM) | 
